Measured values taken from PubChem BioAssay (NCI).
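Where inhibition never reached the appropriate level, the endpoint shown equals the highest concentration tested. Otherwise, values were interpolated linearly from a five-concentration, 48-hour dose response in 96-well plates. TGI: total growth inhibition.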

Tests used:
Assay in all cases: NCI tumour cell line growth inhibition, 48 h
MCF7 breast = test system: MCF7 breast
SW-620 colon = test system: SW-620 colon
OVCAR-3 ovarian = test system: OVCAR-3 ovarian
SK-MEL-28 melanoma = test system: SK-MEL-28 melanoma
UACC-257 melanoma = test system: UACC-257 melanoma
MOLT-4 leukemia = test system: MOLT-4 leukemia
UACC-62 melanoma = test system: UACC-62 melanoma
SNB-75 CNS = test system: SNB-75 CNS
MDA-N = test system: MDA-N
IGROV1 ovarian = test system: IGROV1 ovarian
SK-MEL-5 melanoma = test system: SK-MEL-5 melanoma
SF-268 CNS = test system: SF-268 CNS
DU-145 prostate = test system: DU-145 prostate
RXF 393 renal = test system: RXF 393 renal
786-0 renal = test system: 786-0 renal
EKVX NSCLC = test system: EKVX NSCLC
CCRF-CEM leukemia = test system: CCRF-CEM leukemia
OVCAR-4 ovarian = test system: OVCAR-4 ovarian
OVCAR-5 ovarian = test system: OVCAR-5 ovarian
SNB-19 CNS = test system: SNB-19 CNS
NCI/ADR-RES ovarian = test system: NCI/ADR-RES ovarian
A549 NSCLC = test system: A549 NSCLC
M14 melanoma = test system: M14 melanoma
HCC-2998 colon = test system: HCC-2998 colon
MDA-MB-435 = test system: MDA-MB-435
K-562 leukemia = test system: K-562 leukemia
COLO 205 colon = test system: COLO 205 colon
TK-10 renal = test system: TK-10 renal
U251 CNS = test system: U251 CNS
SK-OV-3 ovarian = test system: SK-OV-3 ovarian
HOP-62 NSCLC = test system: HOP-62 NSCLC
OVCAR-8 ovarian = test system: OVCAR-8 ovarian
HS 578T breast = test system: HS 578T breast
BT-549 breast = test system: BT-549 breast
SN12C renal = test system: SN12C renal
SK-MEL-2 melanoma = test system: SK-MEL-2 melanoma
KM12 colon = test system: KM12 colon
SR leukemia = test system: SR leukemia
T-47D breast = test system: T-47D breast
HCT-116 colon = test system: HCT-116 colon
MDA-MB-231 breast = test system: MDA-MB-231 breast
ACHN renal = test system: ACHN renal
UO-31 renal = test system: UO-31 renal
PC-3 prostate = test system: PC-3 prostate
NCI-H23 lung = test system: NCI-H23 lung
HCT-15 colon = test system: HCT-15 colon
NCI-H226 lung = test system: NCI-H226 lung
SF-295 CNS = test system: SF-295 CNS
MALME-3M melanoma = test system: MALME-3M melanoma
RPMI-8226 leukemia = test system: RPMI-8226 leukemia
HT29 colon = test system: HT29 colon
NCI-H522 lung = test system: NCI-H522 lung
CAKI-1 renal = test system: CAKI-1 renal
LOX IMVI melanoma = test system: LOX IMVI melanoma
NCI-H460 lung = test system: NCI-H460 lung
HL-60(TB) leukemia = test system: HL-60(TB) leukemia

Measured: TGI

CCOC(=O)CNc1c(OCc2ccccc2)c(=O)c1=O
not listed: CAKI-1 renal | LOX IMVI melanoma | NCI-H460 lung | HL-60(TB) leukemia
> 100 µM: all other assays above

CN1CCC(O)(C(C)(C)C)CC1
not listed: NCI-H522 lung
> 100 µM: all other assays above
